Legend:
MUL_3720 [1] = molecular target: T1, MUL_3720 (Mycobacterium ulcerans, UniProt A0PU23); assay: glycan array (fluorescence); format: binding; conditions: glycan printed on slide via spacer; 1 mM CaCl2 and 1 mM MgCl2 PBS printed for the cell arrays
T1 construct: full length aa 1-207 in pET28a, recombinant, purified; 22 kDa; the MUL_ locus tags are those of strain Agy99
Description: glycan array (fluorescence) on MUL_3720

MUL_3720 [2] = molecular target: T1, MUL_3720; assay: SPR (Biacore T200); format: binding; conditions: read-out: MUL_3720; protein amine-immobilised on CM5 chip, free glycan as analyte
[3] = molecular target: MUL_3720 (Mycobacterium ulcerans) (UniProt A0PU23); assay: SPR; Biacore T200; MUL_3720 immobilised on a CM5 chip at pH 4.5 (5 uL/min, 600 s), ethanolamine blank flow cell as control; keratin extract flowed between 2 nM and 20 uM; double reference subtracted

| Molecule | fold change in fluorescence binding signal (MUL_3720 [1]) [fold] | other results |
| --- | --- | --- |
| 3,6-O-Su2-Galβ1-4(6-O-Su)GlcNAcβ-sp2 [compound 189] | 2.46±0.56 |  |
| 3,6-O-Su2-Galβ1-4GlcNAcβ-sp2 [compound 182] | 3.29±1.77 |  |
| 4,6-O-Su2-GalNAcβ1-4-(3-O-Ac)GlcNAcβ-sp3 [compound 199] | 2.45±0.87 |  |
| 6-O-Su-Galβ1-3(6-O-Su)GlcNAcβ-sp2 [compound 179] | 1.48±0.33 |  |
| 6-O-Su-Galβ1-3GalNAcα-sp3 [compound 151] | 2.44±0.88 |  |
| 6-O-Su-Galβ1-3GlcNAcβ-sp3 [compound 161] | 2.49±0.26 |  |
| CC(=O)N[C@H]1C(O)O[C@H](CO)[C@@H](O[C@@H]2O[C@@H](C)[C@@H](O)[C@@H](O)[C@@H]2O)[C@@H]1O[C@@H]1O[C@H](CO)[C@H](O)[C@H](OS(=O)(=O)O)[C@H]1O[C@@H]1O[C@@H](C)[C@@H](O)[C@@H](O)[C@@H]1O (stereo partly shown) [Fucα1-2(3-O-Su)Galβ1-3(Fucα1–4)GlcNAc] |  | Kd (MUL_3720 [2]): 17400 ± 1900 nM |
| CC(=O)N[C@H]1C(O)O[C@H](COS(=O)(=O)O)[C@H](O)[C@@H]1O[C@@H]1OC(C(=O)O)=C[C@H](O)[C@H]1O (stereo partly drawn) [chondroitin 6S-disaccharide ΔUAα 1-3GalNAc-6S] |  | Kd (MUL_3720 [2]): 99.2 ± 35 nM |
| CC(=O)N[C@H]1[C@H](OCCCN)O[C@H](CO)[C@@H](O[C@@H]2O[C@H](CO)[C@H](OS(=O)(=O)O)[C@H](OS(=O)(=O)O)[C@H]2O)[C@@H]1O [compound 201, 3,4-O-Su2-Galβ1-4GlcNAcβ-sp3] | 1.52±0.64 |  |
| keratin isolated from human epidermis (mixed keratins with average molecular weight of 64.1 kDa) |  | Kd [3]: 4.78 nM |

— publication PMC7906334, “The cell surface protein MUL_3720 confers binding of the skin pathogen Mycobacterium ulcerans to sulfated glycans and keratin” (PLoS Neglected Tropical Diseases, 2021)
